In patent US20250171438A1 (Agios Pharmaceuticals, Inc., priority 2022, published 2025):

Each compound was assayed against T1, human PAH with the R408W mutation (Homo sapiens, UniProt P00439, R408W) (assay: Cell Based Phenylalanine Flux Assay). Settings: A375 cells expressing human R408W PAH; 24 hrs compound incubation; 13C-Tyrosine by LC-MS; average where tested multiple times; read-out: AC50.
T1 construct: expressed in transfected cells
T1 sequence (P00439 1-452 R408W): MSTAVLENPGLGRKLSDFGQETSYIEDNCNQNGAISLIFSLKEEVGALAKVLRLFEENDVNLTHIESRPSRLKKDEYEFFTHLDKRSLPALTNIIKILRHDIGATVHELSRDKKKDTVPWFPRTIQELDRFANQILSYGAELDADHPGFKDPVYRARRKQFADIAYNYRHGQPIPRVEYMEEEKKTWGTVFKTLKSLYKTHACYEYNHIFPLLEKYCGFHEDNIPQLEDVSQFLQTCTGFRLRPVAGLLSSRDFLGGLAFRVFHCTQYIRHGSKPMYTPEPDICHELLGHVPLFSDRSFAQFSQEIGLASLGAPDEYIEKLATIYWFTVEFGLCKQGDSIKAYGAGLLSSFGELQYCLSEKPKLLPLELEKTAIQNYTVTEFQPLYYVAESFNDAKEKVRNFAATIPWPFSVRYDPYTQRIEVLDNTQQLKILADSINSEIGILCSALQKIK
In the case of `O=C(c1oc(NC2CC2)nc1C(F)F)N1CCc2[nH]cnc2[C@@H]1c1nc2ccccc2s1` [Example 1716, (R)-(4-(benzo[d]thiazol-2-yl)-6,7-dihydro-1H-imidazo[4,5-c]pyridin-5(4H)-yl)(2-(cyclopropylamino)-4-(difluoromethyl)oxazol-5-yl)methanone], the AC50 is reported as 1000 to 5000 nM.
In the case of `O=C(c1cnn2cc(Cl)ccc12)N1CCc2[nH]cnc2[C@H]1c1nc2ccccc2s1` [Example 1063], the AC50 is reported as < 500 nM.
For `Cc1nc(-c2cnn(C(C)C)c2)oc1C(=O)N1CCc2[nH]cnc2[C@H]1c1nc2ccccc2s1` [Example 1423], the AC50 was < 500 nM.
`Nc1cc(C(=O)N2CCc3[nH]cnc3[C@@H]2c2nc3ccccc3s2)n(C(F)F)n1` [Example 2052, (R)-(3-amino-1-(difluoromethyl)-1H-pyrazol-5-yl)(4-(benzo[d]thiazol-2-yl)-6,7-dihydro-1H-imidazo[4,5-c]pyridin-5(4H)-yl)methanone] was tested, and the AC50 was 1000 to 5000 nM.
`CCn1ncnc1C(=O)N1CCc2[nH]cnc2[C@@H]1c1nc2ccccc2s1` [Example 1957, (R)-(4-(benzo[d]thiazol-2-yl)-6,7-dihydro-1H-imidazo[4,5-c]pyridin-5(4H)-yl)(1-ethyl-1H-1,2,4-triazol-5-yl)methanone] was tested, and the AC50 was < 500 nM.
With `Cn1cc(C(=O)N2CCc3[nH]cnc3[C@@H]2c2nc3c(F)cccc3s2)c(C(F)(F)F)n1` [Example 1614, (R)-(4-(4-fluorobenzo[d]thiazol-2-yl)-6,7-dihydro-1H-imidazo[4,5-c]pyridin-5(4H)-yl)(1-methyl-3-(trifluoromethyl)-1H-pyrazol-4-yl)methanone] the AC50 was < 500 nM.
Work on `CC(C)(O)c1cc(C(=O)N2CCc3[nH]cnc3[C@H]2c2nc3c(F)cccc3s2)on1` [Example 2170, (S)-(4-(4-fluorobenzo[d]thiazol-2-yl)-6,7-dihydro-1H-imidazo[4,5-c]pyridin-5(4H)-yl)(3-(2-hydroxypropan-2-yl)isoxazol-5-yl)methanone] yielded an AC50 of 1000 to 5000 nM.
`N#Cc1ccn2ncc(C(=O)N3CCc4[nH]cnc4[C@@H]3c3nc4cc(F)ccc4s3)c2c1` [Example 1159, (R)-3-(4-(5-fluorobenzo[d]thiazol-2-yl)-4,5,6,7-tetrahydro-1H-imidazo[4,5-c]pyridine-5-carbonyl)pyrazolo[1,5-a]pyridine-5-carbonitrile] was tested, and the AC50 was > 5000 nM.
`C[C@H]1CN(C(=O)c2nnc(-c3ccc(F)cn3)o2)[C@@H](c2nc3ccccc3s2)c2nc[nH]c21` [Example 1755, ((4R,7S)-4-(benzo[d]thiazol-2-yl)-7-methyl-6,7-dihydro-1H-imidazo[4,5-c]pyridin-5(4H)-yl)(5-(5-fluoropyridin-2-yl)-1,3,4-oxadiazol-2-yl)methanone] was tested, and the AC50 was > 5000 nM.
For `CC(O)(c1nc(C(F)(F)F)c(C(=O)N2CCc3[nH]cnc3[C@H]2c2nc3ccccc3s2)o1)C1CC1` (single isomer, unassigned) [Example 1561], the AC50 was < 500 nM.
`O=C(c1nnc(-c2c(F)cccc2F)o1)N1CCc2[nH]cnc2[C@@H]1c1nc2ccccc2s1` [Example 1368, (R)-(4-(benzo[d]thiazol-2-yl)-6,7-dihydro-1H-imidazo[4,5-c]pyridin-5(4H)-yl)(5-(2,6-difluorophenyl)-1,3,4-oxadiazol-2-yl)methanone] was tested, and the AC50 was < 500 nM.
In the case of `O=C(c1ccnn1C(F)F)N1CCc2[nH]cnc2[C@H]1c1nc2c(F)cccc2s1` [Example 1739], the AC50 is reported as < 500 nM.
Compound `O=C(c1nc2ccccc2[nH]1)N1CCc2[nH]cnc2[C@H]1c1nc2ccccc2s1` [Example 1131] has an AC50 of 500 to 1000 nM.
In the case of `COC(C)(C)c1nc(C)c(C(=O)N2CCc3[nH]cnc3[C@H]2c2nc3c(F)cccc3s2)o1` [Example 1916, (S)-(4-(4-fluorobenzo[d]thiazol-2-yl)-6,7-dihydro-1H-imidazo[4,5-c]pyridin-5(4H)-yl)(2-(2-methoxypropan-2-yl)-4-methyloxazol-5-yl)methanone], the AC50 is reported as 1000 to 5000 nM.
`O=C(c1scnc1C1CC1)N1CCc2[nH]cnc2[C@H]1c1nc2ccccc2s1` [Example 1387] was tested, and the AC50 was < 500 nM.
Compound `O=C(c1oc(C2(O)CC2)nc1C(F)(F)F)N1CCc2[nH]cnc2[C@@H]1c1nc2c(F)cccc2s1` [Example 2186, (R)-(4-(4-fluorobenzo[d]thiazol-2-yl)-1,4,6,7-tetrahydro-5H-imidazo[4,5-c]pyridin-5-yl)(2-(1-hydroxycyclopropyl)-4-(trifluoromethyl)oxazol-5-yl)methanone] has an AC50 of 1000 to 5000 nM.
`O=C(c1nccs1)N1CCc2[nH]cnc2[C@@H]1c1nc2ccc(Br)cc2[nH]1` [Example 932, (R)-(4-(6-bromo-1H-benzo[d]imidazol-2-yl)-6,7-dihydro-1H-imidazo[4,5-c]pyridin-5(4H)-yl)(thiazol-2-yl)methanone] was tested, and the AC50 was > 5000 nM.
In the case of `O=C(c1cnco1)N1CCc2[nH]cnc2[C@@H]1c1nc2c(F)cccc2s1` [Example 1224, (R)-(4-(4-fluorobenzo[d]thiazol-2-yl)-6,7-dihydro-1H-imidazo[4,5-c]pyridin-5(4H)-yl)(oxazol-5-yl)methanone], the AC50 is reported as 1000 to 5000 nM.
`O=C(c1nc2ccccc2[nH]1)N1CCc2[nH]cnc2[C@@H]1c1nc2ccccc2s1` [Example 1132, (R)-(1H-benzo[d]imidazol-2-yl)(4-(benzo[d]thiazol-2-yl)-6,7-dihydro-1H-imidazo[4,5-c]pyridin-5(4H)-yl)methanone] showed an AC50 of 1000 to 5000 nM.
In the case of `Cn1ncc(-c2ncc(C(=O)N3CCc4[nH]cnc4[C@H]3c3nc4ccccc4s3)s2)c1C(F)(F)F` [Example 1407], the AC50 is reported as < 500 nM.
Work on `CC(C)(C)n1ncc(C(=O)N2CCc3[nH]cnc3[C@H]2c2nc3c(F)cccc3s2)c1Cl` [Example 1931] yielded an AC50 of 500 to 1000 nM.
For `O=C(C1CC1(F)F)N1CCc2[nH]cnc2[C@H]1c1nc2ccccc2s1` (single isomer, unassigned) [Example 1287], the AC50 was > 5000 nM.
With `O=C(c1ocnc1C(F)F)N1CCc2[nH]cnc2[C@@H]1c1nc2ccccc2s1` [Example 1540, (R)-(4-(benzo[d]thiazol-2-yl)-6,7-dihydro-1H-imidazo[4,5-c]pyridin-5(4H)-yl)(4-(difluoromethyl)oxazol-5-yl)methanone] the AC50 was < 500 nM.
With `O=C(c1cnn2ccccc12)N1CCc2[nH]cnc2[C@H]1c1nc2cccc(Br)c2s1` [Example 1335, (S)-(4-(7-bromobenzo[d]thiazol-2-yl)-6,7-dihydro-1H-imidazo[4,5-c]pyridin-5(4H)-yl)(pyrazolo[1,5-a]pyridin-3-yl)methanone] the AC50 was < 500 nM.
`CC(C)(C)CCC(=O)N1CCc2[nH]cnc2[C@@H]1c1nc2ccc(Br)cc2[nH]1` [Example 943, (R)-1-(4-(6-bromo-1H-benzo[d]imidazol-2-yl)-6,7-dihydro-1H-imidazo[4,5-c]pyridin-5(4H)-yl)-4,4-dimethylpentan-1-one] showed an AC50 of 1000 to 5000 nM.
`O=C(c1cnn2c(Br)cccc12)N1CCc2[nH]cnc2[C@H]1c1nc2ccccc2s1` [Example 1069] gave an AC50 of 500 to 1000 nM.
`CCn1cnnc1C(=O)N1CCc2[nH]cnc2[C@H]1c1nc2c(F)cccc2s1` [Example 2044] gave an AC50 of 500 to 1000 nM.
Compound `Cc1ccc2c(C(=O)N3CCc4[nH]cnc4[C@H]3c3nc4c(C)cccc4s3)cnn2c1` [Example 1295, (S)-(4-(4-methylbenzo[d]thiazol-2-yl)-6,7-dihydro-1H-imidazo[4,5-c]pyridin-5(4H)-yl)(6-methylpyrazolo[1,5-a]pyridin-3-yl)methanone] has an AC50 of 500 to 1000 nM.
With `Cn1nc(C(F)F)cc1C(=O)N1CCc2[nH]cnc2[C@H]1c1nc2ccccc2s1` [Example 1803] the AC50 was < 500 nM.
Compound `CC(O)c1nc(Cl)c(C(=O)N2CCc3[nH]cnc3[C@H]2c2nc3c(F)cccc3s2)o1` (single isomer, unassigned) [Example 2080] has an AC50 of 500 to 1000 nM.
Work on `O=C(c1nnc(-c2cc[nH]n2)o1)N1CCc2[nH]cnc2[C@@H]1c1nc2c(F)cccc2s1` [Example 1885, (R)-(5-(1H-pyrazol-3-yl)-1,3,4-oxadiazol-2-yl)(4-(4-fluorobenzo[d]thiazol-2-yl)-6,7-dihydro-1H-imidazo[4,5-c]pyridin-5(4H)-yl)methanone] yielded an AC50 of 1000 to 5000 nM.

Same assay, conditions: A375 cells expressing human R408W PAH; 24 hrs with compound; 13C-Tyrosine by LC-MS; average where tested multiple times; read-out: AC50
In the case of `O=C(c1nc2ccccc2s1)N1CCc2[nH]cnc2C1c1nc2cc(F)ccc2s1` (stereo not shown), the AC50 is reported as 1000 to 5000 nM.
In the case of `CC1CN(C(=O)c2cnco2)C(c2nc3c(F)cccc3s2)c2nc[nH]c21` (stereo not shown), the AC50 is reported as > 5000 nM.
In the case of `O=C(c1cnn2cccc(F)c12)N1CCc2[nH]cnc2C1c1nc2ccc(F)cc2s1` (stereo not shown), the AC50 is reported as > 5000 nM.
In the case of `COc1ccn2ncc(C(=O)N3CCc4[nH]cnc4C3c3nc4ccc(Br)cc4[nH]3)c2c1` (stereo not shown), the AC50 is reported as > 5000 nM.
For `Cc1nc(N2CCOCC2)oc1C(=O)N1CCc2[nH]cnc2C1c1nc2c(F)cccc2s1` (stereo not shown), the AC50 was > 5000 nM.
With `COc1cccc(CCC(=O)N2CCc3[nH]cnc3C2c2nc3ccccc3[nH]2)c1` (stereo not shown) the AC50 was 1000 to 5000 nM.
For `Cc1ncsc1C(=O)N1CCc2[nH]cnc2C1c1nc2ccccc2s1` (stereo not shown), the AC50 was 1000 to 5000 nM.
With `Cc1nnc(C(=O)N2CCc3[nH]cnc3C2c2nc3cc(Br)ccc3[nH]2)s1` (stereo not shown) the AC50 was > 5000 nM.
For `O=C(Cc1nccs1)N1CCc2[nH]cnc2C1c1nc2ccc(Cl)cc2[nH]1` (stereo not shown), the AC50 was > 5000 nM.
With `Cn1ccc(C(=O)N2CCc3[nH]cnc3C2c2nc3c(F)cccc3s2)n1` (stereo not shown) the AC50 was > 5000 nM.
With `Cn1nc(CC#N)nc1C(=O)N1CCc2[nH]cnc2C1c1nc2c(F)cccc2s1` (stereo not shown) the AC50 was 1000 to 5000 nM.
Work on `c1ccc2oc(N3CCc4[nH]cnc4C3c3nc4ccccc4s3)nc2c1` (stereo not shown) yielded an AC50 of 1000 to 5000 nM.
`O=C(c1cnco1)N1CCCc2[nH]cnc2C1c1nc2ccccc2s1` (stereo not shown) showed an AC50 of 1000 to 5000 nM.
`O=C(C=Cc1ccccc1)N1CCc2[nH]cnc2C1c1nc2ccccc2[nH]1` (stereo not shown) gave an AC50 of 1000 to 5000 nM.
`O=C(c1cc[nH]n1)N1CCc2[nH]cnc2C1c1nc2ccccc2[nH]1` (stereo not shown) showed an AC50 of 1000 to 5000 nM.
